“And” between values parts separate entries of the source, which are not always exact repeats. Equal entries are not always repeated. Where two headings read alike, the source gives them in different places.
Assays:
[1] = Emission and luminescence quantum yield; assay type: physicochemical; settings: acetonitrile
Method: The absorption spectra of the sample was measured with a SpectraMax M2 Spectrometer (Molecular Devices). For the measurements of the emission, the sample was irradiated at 355 nm with a NT342B Nd-YAG pumped optical parametric oscillator (Ekspla). The emission was focused at right angle to the excitation pathway and directed to a Princeton Instruments Acton SP-2300i monochromator. The signal was detected with a XPI-Max 4 CCD camera (Princeton Instruments).
The sample was prepared in an acetonitrile solution with an absorption of 0.1 at 355 nm. The sample was irradiated at 355 nm with a NT342B Nd-YAG pumped optical parametric oscillator (Ekspla). The emission was focused at right angle to the excitation pathway and directed to a Princeton Instruments Acton SP-2300i monochromator. The signal was detected with a XPI-Max 4 CCD camera (Princeton Instruments). The luminescence quantum yields were determined by comparison with the reference [Ru(2,2′-bipyridine)3]Cl2 in acetonitrile (Φem = 5.9%)[58] applying the following formula:2 Φem,sample=Φem,reference×Freference/Fsample×Isample/Ireference×nsample/nreference^2, 3 F=1−10^-A. Φem = luminescence quantum yield, F = fraction of light absorbed, I = integrated emission intensities, n = refractive index, A = absorbance of the sample at irradiation wavelength.

[2] = Singlet oxygen quantum yield, indirect evaluation (1O2 scavenger absorbance); assay type: physicochemical
Method: Indirect evaluation: measurement in acetonitrile: the sample was prepared in an air-saturated acetonitrile solution with an absorption of 0.2 at the irradiation wavelength, N,N-dimethyl-4-nitrosoaniline aniline (RNO, 24 µM) and imidazole (12 mM). Measurement in PBS buffer: the sample was prepared in an air-saturated PBS solution containing the complex with an absorption of 0.2 at the irradiation wavelength, N,N-dimethyl-4-nitrosoaniline aniline (RNO, 20 µM) and histidine (10 mM). The samples were irradiated for various time points with an Atlas Photonics LUMOS BIO irradiator. The absorption of the samples was constantly monitored with a SpectraMax M2 Microplate Reader (Molecular Devices). The difference in absorption (A0 − A) at 420 nm for the measurement in acetonitrile or at 440 nm for the measurement in PBS was determined. The difference in absorption was then plotted against the irradiation times and the slope of the linear regression calculated. The absorption of the sample was corrected with an absorption correction factor. The singlet oxygen quantum yields were calculated using the same formulas as used for the direct evaluation.

Photobleaching by NMR = assay type: physicochemical; settings: 450 nm, 10 min, 13.2 J cm^−2, CD3CN
Method: The sample was dissolved in air saturated 0.7 mL CD3CN and stored in a NMR tube in the dark. A ^1H-NMR spectrum was measured directly after preparation to ensure the identity of the sample. The sample was then irradiated at 450 nm with an Atlas Photonics LUMOS BIO irradiator (10 min, 13.2 J cm^−2). Following this treatment, a ^1H-NMR spectrum was again measured.

HeLa MCTS = experiment: (Photo-)cytotoxicity on 3D MCTS (ATP concentration); assay type: cell-based, human; settings: for IC50: 1-3 as chloride salts; for PI (2P irradiation): dark vs 800 nm; for PI (1P irradiation): dark vs 500 nm
Method: The cytotoxicity of the compounds in 3D MCTS was assessed by measurement of the ATP concentration. MCTS were treated with increasing concentrations of the compound (2% DMSO, v%) by replacing 50% of the media with drug supplemented media and incubation for 12 h. After this time, the MCTS were divided in three identical groups. The first group was strictly kept in the dark. The second group was exposed to a 1-Photon irradiation (500 nm, 16.7 min, 10.0 mW cm^−2, and 10 J cm^−2) using a LED light source and the third group was exposed to a 2-Photon irradiation (800 nm, 10 J cm^−2 with a section interval of 5 μm) using a LSM 880 (Carl Zeiss, Germany) laser scanning confocal microscope equipped with a Coherent Chameleon 2-Photon laser. After the irradiation, all groups were incubated additional 48 h. The ATP concertation was measured using a CellTiter-Glo 3D Cell Viability kit (Promega) by measuring the generated chemiluminescence with an infinite M200 PRO (Tecan) plate reader.

[3] = In vivo time-dependent biodistribution (ICP-MS); set-up: species or system mouse; settings: chloride salt, SW620/AD300 tumor-bearing nude mice
Method: Six weeks old nu/nu female mice were purchased from Charles River. For the tumor xenograft, 6 × 10^6 SW620/AD300 cells were subcutaneously (s.c.) injected with a 150 μL Matrigel and saline (1:1, v/v) suspension into the mice. After a week, the tumor volumes of the mice reached ~80 mm^3. All experiments were conducted in compliance with the ethical regulations for animal testing and received approval of the experimental animal managing committee of Sun Yat Sen University.
Three nude mice were tail-intravenous (i.v.) injected with 2 mg kg^−1 of the sample. One hour later, the mice were sacrificed and the major organs (including the heart, liver, spleen, lung, kidney, brain, intestine, and blood) were separated, weighted and ground. The grinded organ as well as the blood were digested using a 60% HNO3 solution for 3 days, and following this, diluted to a 2% HNO3 solution in water. The Ru content was determined with an ICP-MS apparatus and the results compared with the Ru references.
Six SW620/AD300 nude tumor-bearing nude mice were separated into three groups, and i.v. injected with 2 mg kg^−1 of the sample. 30 min, 1 h, 2 h later, the mice were euthanized and the distribution of the sample determined using the previous described method.

[4] = 2P 800 nm, section interval 5 μm, read-out: IC50 2P irradiation (800 nm, 10 J cm-2)
[5] = 1P 500 nm, read-out: IC50 1P irradiation (500 nm, 10 J cm-2)

Structure (SMILES) | Φem, luminescence quantum yield [1] | λem, emission maximum [1] | Singlet oxygen quantum yield, Indirect 450 nm CH3CN [2] | Singlet oxygen quantum yield, Indirect 450 nm PBS [2] | Singlet oxygen quantum yield, Indirect 540 nm CH3CN [2] | Singlet oxygen quantum yield, Indirect 540 nm PBS [2] | effect of irradiation on the molecular structure (NMR) (Photobleaching by NMR) | IC50 (HeLa MCTS; [4]) | PI (2P irradiation) (HeLa MCTS) | IC50 (HeLa MCTS; [5]) | PI (1P irradiation) (HeLa MCTS) | IC50 (HeLa MCTS; dark, read-out: IC50 dark) | Singlet oxygen quantum yield in acetonitrile (range over methods and wavelengths) ([2]; acetonitrile, 450 and 540 nm, direct and indirect) | Singlet oxygen quantum yield in aqueous solution (range over wavelengths) ([2]; aqueous solution, 450 and 540 nm) | time until absorbed from the blood stream ([3]; 2 mg kg^−1 i.v. tail injection) | organ accumulation (Ru content) ([3]; 2 mg kg^−1 i.v.)
C(=C\c1ccnc(-c2cc(/C=C/c3ccccc3)ccn2)c1)/c1ccccc1.C(=C\c1ccnc(-c2cc(/C=C/c3ccccc3)ccn2)c1)/c1ccccc1.C(=C\c1ccnc(-c2cc(/C=C/c3ccccc3)ccn2)c1)/c1ccccc1.F[P-](F)(F)(F)(F)F.F[P-](F)(F)(F)(F)F.[Ru+2] [compound 1] | 1.9% | 677 nm | 66% | 5% | 61% | 3% | – | – | – | – | – | – | – | – | – | –
CN(C)c1ccc(/C=C/c2ccnc(-c3cc(/C=C/c4ccc(N(C)C)cc4)ccn3)c2)cc1.CN(C)c1ccc(/C=C/c2ccnc(-c3cc(/C=C/c4ccc(N(C)C)cc4)ccn3)c2)cc1.CN(C)c1ccc(/C=C/c2ccnc(-c3cc(/C=C/c4ccc(N(C)C)cc4)ccn3)c2)cc1.F[P-](F)(F)(F)(F)F.F[P-](F)(F)(F)(F)F.[Ru+2] [compound 2, [Ru((E,E′)-4,4′-Bis[p-(N,N-dimethylamino)styryl]-2,2′-bipyridine)3][PF6]2] | > 0.1% | 709 nm | 25% | 3% | 16% | 1% | decomposition of the compound | – | – | – | – | – | – | – | – | –
COc1ccc(/C=C/c2ccnc(-c3cc(/C=C/c4ccc(OC)cc4)ccn3)c2)cc1.COc1ccc(/C=C/c2ccnc(-c3cc(/C=C/c4ccc(OC)cc4)ccn3)c2)cc1.COc1ccc(/C=C/c2ccnc(-c3cc(/C=C/c4ccc(OC)cc4)ccn3)c2)cc1.F[P-](F)(F)(F)(F)F.F[P-](F)(F)(F)(F)F.[Ru+2] [compound 3, [Ru((E,E′)-4,4′-Bis[p-methoxystyryl]-2,2′-bipyridine)3][PF6]2] | 1.1% | 682 nm | 48% | 6% | 49% | 5% | – | 87.3 ± 6.8 µM | > 1.1 | – | – | – | – | – | – | –
CN(C)c1ccc(/C=C/c2ccnc(-c3cc(/C=C/c4ccc(N(C)C)cc4)ccn3)c2)cc1.CN(C)c1ccc(/C=C/c2ccnc(-c3cc(/C=C/c4ccc(N(C)C)cc4)ccn3)c2)cc1.F[P-](F)(F)(F)(F)F.F[P-](F)(F)(F)(F)F.[Ru+2].c1ccc(-c2ccccn2)nc1 [compound 4, [Ru(2,2′-bipyridine)((E,E′)-4,4′-Bis[p-(N,N-dimethylamino)styryl]-2,2′-bipyridine)2][PF6]2] | 0.4% | 703 nm | 40% | 2% | 37% | 3% | – | 63 ± 4.2 µM | > 1.6 | 78.3 ± 5.1 µM | > 1.3 | – | – | – | – | –
COc1ccc(/C=C/c2ccnc(-c3cc(/C=C/c4ccc(OC)cc4)ccn3)c2)cc1.COc1ccc(/C=C/c2ccnc(-c3cc(/C=C/c4ccc(OC)cc4)ccn3)c2)cc1.F[P-](F)(F)(F)(F)F.F[P-](F)(F)(F)(F)F.[Ru+2].c1ccc(-c2ccccn2)nc1 [compound 5, [Ru(2,2′-bipyridine)((E,E′)-4,4′-Bis[p-methoxystyryl]-2,2′-bipyridine)2][PF6]2] | 1.4% | 674 nm | 51% | 8% | 46% | 6% | – | 13.4 ± 3.9 µM | > 7.5 | 19.3 ± 2.7 µM | > 5.2 | – | – | – | – | –
CN(C)c1ccc(/C=C/c2ccnc(-c3cc(/C=C/c4ccc(N(C)C)cc4)ccn3)c2)cc1.F[P-](F)(F)(F)(F)F.F[P-](F)(F)(F)(F)F.[Ru+2].c1ccc(-c2ccccn2)nc1.c1ccc(-c2ccccn2)nc1 [compound 6, [Ru(2,2′-bipyridine)2((E,E′)-4,4′-Bis[p-(N,N-dimethylamino)styryl]-2,2′-bipyridine)][PF6]2] | 0.5% | 697 nm | 53% | 2% | 38% | 2% | – | 26.5 ± 2.9 µM | > 11.3 | 33.8 ± 3.4 µM | > 8.9 | > 300 µM | – | – | – | –
COc1ccc(/C=C/c2ccnc(-c3cc(/C=C/c4ccc(OC)cc4)ccn3)c2)cc1.F[P-](F)(F)(F)(F)F.F[P-](F)(F)(F)(F)F.[Ru+2].c1ccc(-c2ccccn2)nc1.c1ccc(-c2ccccn2)nc1 [compound 7, [Ru(2,2′-bipyridine)2((E,E′)-4,4′-Bis[p-methoxystyryl]-2,2′-bipyridine)][PF6]2] | 2.8% | 664 nm | 77% | 11% | 68% | 10% | – | > 1.4 µM and 1.4 µM | > 250 and > 214.3 | > 6.8 µM and 6.8 µM | > 44 and > 44.1 | > 300 µM | 68–77% | 10–11% | ≤ 1 h | high accumulation in the intestine and some accumulation in the tumor

— PMC7320011, “Rationally designed ruthenium complexes for 1- and 2-photon photodynamic therapy” (Nature Communications, 2020)
